# Assay: particle size distribution measured under wet conditions (Malvern Mastersizer 2000 SM)
# Type: physicochemical
# Conditions: stiripentol particles of Example 1 after double recrystallization from toluene
# Protocol: This particle size distribution is measured under wet conditions.
structure (smiles),measurement,value
"CC(C)(C)C(O)/C=C/c1ccc2c(c1)OCO2 (stereo not shown) [stiripentol, 4-dimethyl-1-[(3,4-methylenedioxy)-phenyl]-1-penten-3-ol]",Diameter of 90% of the particles (d90),≤ 250 μm
